Reference: patent US10280170B2, “Substituted 4,5,6,7-tetrahydro-pyrazolo[1,5-a]pyrazine derivatives and 5,6,7,8-tetrahydro-4H-pyrazolo[1,5-a][1,4]diazepine derivatives as Ros1 inhibitors” (Janssen Pharmaceutica NV, priority 2014, dated 2019)
Read-outs that look alike come from different tables or passages of the source.

Experiments:
[1] = tested on: HCC78 non-small cell lung cancer cells; experiment: HCC78 cell proliferation assay; type: cell-based; details: for EC50: Homo sapiens, HCC78, 96 h, read-out: HCC-78 PROL pEC50 (converted)
Outline: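 HCC78 NSCLC cells (~1000/well) in RPMI-1640 with 10% FBS were treated 24 h after seeding and exposed to compound for 4 days at 37 °C. Viability was read by MTT, with absorbance at 538 nm after DMSO/glycine solubilization.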

Ros1 enzyme = target: T1, Ros1 enzyme (Homo sapiens, UniProt P08922); experiment: Ros1 enzymatic assay; type: biochemical; details: Ros1 enzymatic assay; read-out: ROS1 pIC50 (converted)
T1 construct: 0.5 μg/ml Ros1 enzyme
Outline: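 A radiometric assay mixed enzyme mix (0.5 μg/ml human Ros1) with substrate mix (6 μg/ml biotinylated IRS-Tide, 20 μM ATP plus [33P]ATP), both in 50 mM Tris-HCl pH 7.5, 10 mM MgCl2, 1 mM EGTA, 0.01% Tween-20. The reaction ran 120 min at room temperature, was stopped with EDTA plus streptavidin imaging beads, and was read by LEADseeker imaging.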

[2] = tested on: Ba/F3 cells containing Ros1 wild-type protein + IL-3; experiment: Ba/F3-Ros1 cell proliferation counter-screen, wild-type protein in the presence of 10 ng/ml murine IL-3; type: cell-based; details: Mus musculus, BaF3, 24 h, read-out: BaF3-ROS1 + IL3 pIC50 (converted)
Outline: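 Ba/F3 cells expressing wild-type Ros1, 20000 per well in RPMI-1640 with 10% FBS, cultured with compounds for 24 h at 37 °C with 10 ng/ml murine IL-3. Alamar Blue (resazurin) then added for 4 h. Fluorescence read at ex 540/em 590 nm.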

[3] = target: Ba/F3 cells containing Ros1 with a mutation at the gatekeeper residue (L2026M) (Homo sapiens, UniProt P08922, L2026M, cells depend on it, form not given); experiment: Ba/F3-Ros1 cell proliferation assay, L2026M gatekeeper mutant; type: cell-based, murine; details: without IL-3
Outline: (§1)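 20000 Ba/F3-Ros1 cells/well (WT, L2026M, G2032R), RPMI-1640 phenol red free + 10% FBS + 2 mM Gln, cpds from DMSO; 24 h, 37 °C, 5% CO2. Alamar Blue 4 h, RFU ex540/em590.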

[4] = target: T2, Ba/F3 cells containing Ros1 wild-type protein (Homo sapiens, UniProt P08922, cells depend on it, form not given); experiment: Ba/F3-Ros1 cell proliferation assay, wild-type Ros1; type: cell-based, murine; details: without IL-3
T2 construct: The background only speaks of 'a number of different unrelated proteins' and names SLC34A2-ROS1 for HCC78 cells
Outline: as §1

[5] = counter-screen, wild-type, 10 ng/ml murine IL-3

T2 sequence (P08922 whole entry, stated change not applied): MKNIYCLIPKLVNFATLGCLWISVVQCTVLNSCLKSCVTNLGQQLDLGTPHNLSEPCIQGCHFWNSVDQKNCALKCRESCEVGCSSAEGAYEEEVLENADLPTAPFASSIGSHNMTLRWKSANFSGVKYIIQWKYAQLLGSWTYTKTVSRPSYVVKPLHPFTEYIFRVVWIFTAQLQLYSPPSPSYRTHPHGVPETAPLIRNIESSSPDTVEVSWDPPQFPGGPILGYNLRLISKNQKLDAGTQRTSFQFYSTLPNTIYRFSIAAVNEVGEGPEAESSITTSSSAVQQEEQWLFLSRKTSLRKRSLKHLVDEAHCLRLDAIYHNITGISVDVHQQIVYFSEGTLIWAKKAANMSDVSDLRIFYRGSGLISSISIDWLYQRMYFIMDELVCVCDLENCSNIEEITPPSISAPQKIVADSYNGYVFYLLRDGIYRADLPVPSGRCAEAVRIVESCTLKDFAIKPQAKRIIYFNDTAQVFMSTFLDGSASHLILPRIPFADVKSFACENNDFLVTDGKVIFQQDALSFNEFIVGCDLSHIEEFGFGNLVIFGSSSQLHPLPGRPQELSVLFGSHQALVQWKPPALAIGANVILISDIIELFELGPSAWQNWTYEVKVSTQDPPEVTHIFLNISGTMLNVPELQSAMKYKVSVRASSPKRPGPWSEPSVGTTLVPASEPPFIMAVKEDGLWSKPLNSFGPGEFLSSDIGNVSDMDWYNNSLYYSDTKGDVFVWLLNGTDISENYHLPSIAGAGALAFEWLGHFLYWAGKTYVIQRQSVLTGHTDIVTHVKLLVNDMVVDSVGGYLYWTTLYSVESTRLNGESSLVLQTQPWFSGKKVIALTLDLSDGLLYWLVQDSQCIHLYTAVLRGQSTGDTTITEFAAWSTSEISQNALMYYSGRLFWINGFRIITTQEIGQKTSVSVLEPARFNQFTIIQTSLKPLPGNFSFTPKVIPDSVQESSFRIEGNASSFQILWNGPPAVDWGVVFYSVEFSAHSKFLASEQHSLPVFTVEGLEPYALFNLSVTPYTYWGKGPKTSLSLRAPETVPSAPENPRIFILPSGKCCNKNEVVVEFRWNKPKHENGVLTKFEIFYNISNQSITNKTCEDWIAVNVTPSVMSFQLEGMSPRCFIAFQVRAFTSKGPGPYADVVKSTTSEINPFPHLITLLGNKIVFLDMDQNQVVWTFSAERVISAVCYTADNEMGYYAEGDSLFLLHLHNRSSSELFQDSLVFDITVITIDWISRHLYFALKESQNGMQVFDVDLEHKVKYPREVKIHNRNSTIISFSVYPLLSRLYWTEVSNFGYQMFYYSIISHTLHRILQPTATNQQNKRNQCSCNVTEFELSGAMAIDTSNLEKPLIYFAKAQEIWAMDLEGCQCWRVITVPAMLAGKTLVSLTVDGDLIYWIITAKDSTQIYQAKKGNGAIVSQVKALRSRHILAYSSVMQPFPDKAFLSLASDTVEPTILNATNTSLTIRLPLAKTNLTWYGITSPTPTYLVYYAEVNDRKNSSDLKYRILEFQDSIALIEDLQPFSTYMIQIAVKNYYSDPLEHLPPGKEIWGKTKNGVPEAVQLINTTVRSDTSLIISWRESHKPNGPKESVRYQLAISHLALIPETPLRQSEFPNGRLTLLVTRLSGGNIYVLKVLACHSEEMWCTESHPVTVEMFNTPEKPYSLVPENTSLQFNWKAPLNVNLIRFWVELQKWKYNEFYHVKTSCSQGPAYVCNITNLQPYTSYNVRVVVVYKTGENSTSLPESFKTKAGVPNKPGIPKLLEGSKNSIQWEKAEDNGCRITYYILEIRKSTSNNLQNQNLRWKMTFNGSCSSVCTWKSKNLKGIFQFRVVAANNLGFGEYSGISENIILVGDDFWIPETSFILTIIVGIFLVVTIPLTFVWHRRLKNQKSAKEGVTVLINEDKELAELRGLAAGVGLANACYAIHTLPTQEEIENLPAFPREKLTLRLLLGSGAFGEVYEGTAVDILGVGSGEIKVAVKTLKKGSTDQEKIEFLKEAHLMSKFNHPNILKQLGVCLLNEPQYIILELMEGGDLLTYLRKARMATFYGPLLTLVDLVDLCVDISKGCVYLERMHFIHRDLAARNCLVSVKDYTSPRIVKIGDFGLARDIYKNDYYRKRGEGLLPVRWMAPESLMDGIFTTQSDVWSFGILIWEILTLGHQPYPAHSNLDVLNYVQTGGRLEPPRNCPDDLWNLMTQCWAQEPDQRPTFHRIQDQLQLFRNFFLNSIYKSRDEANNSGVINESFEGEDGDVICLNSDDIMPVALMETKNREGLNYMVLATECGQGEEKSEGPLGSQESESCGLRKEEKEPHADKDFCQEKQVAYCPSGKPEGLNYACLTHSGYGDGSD
T1 sequence (P08922 28-2347): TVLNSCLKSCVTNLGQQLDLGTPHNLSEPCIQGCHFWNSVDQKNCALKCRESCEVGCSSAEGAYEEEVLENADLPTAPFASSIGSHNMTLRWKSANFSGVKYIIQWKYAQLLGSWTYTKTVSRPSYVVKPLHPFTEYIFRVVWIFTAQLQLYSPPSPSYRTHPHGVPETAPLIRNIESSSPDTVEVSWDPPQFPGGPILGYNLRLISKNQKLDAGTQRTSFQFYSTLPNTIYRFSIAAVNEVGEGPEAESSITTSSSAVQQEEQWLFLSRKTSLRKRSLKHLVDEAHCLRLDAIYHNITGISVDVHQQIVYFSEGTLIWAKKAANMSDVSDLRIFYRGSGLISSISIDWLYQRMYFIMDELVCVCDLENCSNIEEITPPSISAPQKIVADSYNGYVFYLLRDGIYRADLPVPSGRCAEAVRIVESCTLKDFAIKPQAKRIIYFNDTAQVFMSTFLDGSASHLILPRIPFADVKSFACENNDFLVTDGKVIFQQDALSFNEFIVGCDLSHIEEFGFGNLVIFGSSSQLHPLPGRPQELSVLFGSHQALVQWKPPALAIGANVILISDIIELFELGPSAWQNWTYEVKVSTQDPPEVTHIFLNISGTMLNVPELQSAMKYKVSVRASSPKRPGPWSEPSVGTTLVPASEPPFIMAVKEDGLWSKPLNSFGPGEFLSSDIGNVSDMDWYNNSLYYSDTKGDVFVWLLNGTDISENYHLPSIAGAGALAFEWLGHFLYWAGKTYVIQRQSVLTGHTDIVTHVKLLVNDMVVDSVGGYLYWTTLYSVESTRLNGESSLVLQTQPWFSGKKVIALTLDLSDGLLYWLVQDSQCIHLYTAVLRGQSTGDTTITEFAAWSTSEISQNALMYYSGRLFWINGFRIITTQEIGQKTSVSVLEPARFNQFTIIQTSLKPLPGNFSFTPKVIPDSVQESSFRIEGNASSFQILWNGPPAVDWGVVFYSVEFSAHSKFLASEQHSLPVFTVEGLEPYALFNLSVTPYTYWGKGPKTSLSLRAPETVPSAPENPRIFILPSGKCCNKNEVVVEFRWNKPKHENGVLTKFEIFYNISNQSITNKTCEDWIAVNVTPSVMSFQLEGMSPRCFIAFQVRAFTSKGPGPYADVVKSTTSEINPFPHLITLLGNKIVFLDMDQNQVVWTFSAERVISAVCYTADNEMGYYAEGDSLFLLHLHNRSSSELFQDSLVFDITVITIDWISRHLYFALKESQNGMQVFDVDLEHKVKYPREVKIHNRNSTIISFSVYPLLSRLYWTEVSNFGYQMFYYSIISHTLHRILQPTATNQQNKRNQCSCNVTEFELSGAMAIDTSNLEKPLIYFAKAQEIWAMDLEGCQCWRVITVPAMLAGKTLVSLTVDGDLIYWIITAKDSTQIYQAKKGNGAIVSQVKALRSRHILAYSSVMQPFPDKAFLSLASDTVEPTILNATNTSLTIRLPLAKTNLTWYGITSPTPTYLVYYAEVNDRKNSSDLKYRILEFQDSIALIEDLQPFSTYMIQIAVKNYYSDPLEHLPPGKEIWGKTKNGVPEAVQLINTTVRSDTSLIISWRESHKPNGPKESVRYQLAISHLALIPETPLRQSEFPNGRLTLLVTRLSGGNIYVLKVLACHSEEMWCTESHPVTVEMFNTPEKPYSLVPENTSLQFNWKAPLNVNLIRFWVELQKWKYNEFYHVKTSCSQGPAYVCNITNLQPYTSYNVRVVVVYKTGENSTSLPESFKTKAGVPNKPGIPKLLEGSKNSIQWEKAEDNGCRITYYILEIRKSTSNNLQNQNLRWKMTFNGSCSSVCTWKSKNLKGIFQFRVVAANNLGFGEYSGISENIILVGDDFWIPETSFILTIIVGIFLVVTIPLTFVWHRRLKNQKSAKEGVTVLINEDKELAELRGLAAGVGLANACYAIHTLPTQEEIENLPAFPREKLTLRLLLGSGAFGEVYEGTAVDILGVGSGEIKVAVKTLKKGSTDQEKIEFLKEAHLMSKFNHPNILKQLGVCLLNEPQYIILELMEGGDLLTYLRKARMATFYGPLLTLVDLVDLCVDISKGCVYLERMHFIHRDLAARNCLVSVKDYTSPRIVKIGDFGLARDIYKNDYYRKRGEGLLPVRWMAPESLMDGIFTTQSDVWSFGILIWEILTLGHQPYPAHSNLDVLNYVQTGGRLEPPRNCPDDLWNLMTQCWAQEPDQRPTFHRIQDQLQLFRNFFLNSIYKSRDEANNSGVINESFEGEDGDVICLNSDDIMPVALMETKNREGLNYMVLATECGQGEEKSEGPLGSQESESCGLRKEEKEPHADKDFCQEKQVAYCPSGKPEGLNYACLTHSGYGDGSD
Sequence of Ba/F3 cells containing Ros1 with a mutation at the gatekeeper residue (L2026M) (P08922 whole entry L2026M, form open): as the sequence (P08922 whole entry, stated change not applied) above, with L2026M counted along it

SMILES	EC50 [1] [nM]	IC50 (Ros1 enzyme) [nM]	CC50 [2] [nM]	Ba/F3 Ros1 L2026M (-IL-3) pIC50 [3]	melting point [°C]	BaF3-ROS1-IL3 pIC50 [4]	EC50 ([1]; HCC78 cells, 4 days, MTT) [nM]	CC50 [2, 5] [nM]	HCC-78 PROL pEC50 ([1]; HCC78 cells, 4 days, MTT)
CC(C)c1ccc(COc2ccc(-c3c(-c4ccncc4)nn4c3C(=O)N(CCO)CC4)cc2)cc1C#N [Compound 87]	200	39.8	> 10000	7.2	160	7.3			
CC(C)c1ccc(CC(=O)c2ccc(-c3c(-c4ccncc4)nn4c3C(=O)NCC4)cc2)cc1 [Compound 148]	1580	6310	> 10000	5.9	259	5.5			
CC(C)c1ccc(COC2CCN(c3c(-c4ccncc4)nn4c3C(=O)N(C)CC4)CC2)cc1 [Compound 215]		126		7.2	140	7.0	251	> 10000	
CC(C)c1cc(F)c(COc2ccc(-c3c(-c4ccncc4)nn4c3C(=O)N(CC(O)CO)CC4)cc2)cc1F (stereo not drawn) [Compound 98]		251		6.6	184	6.8		> 10000	6.5
CC(C)c1ccc(COc2ccc(-c3c(-c4ccncc4)nn4c3C(=O)NC(CN(C)CCO)C4)cc2)cc1 (stereo not drawn) [Compound 195]		126		7.0	193	6.7	794	> 10000	
CC(C)c1ccc(COc2ccc(-c3c(-c4ccnc(CO)c4)nn4c3C(=O)NCC4)cc2)cc1 [Compound 233]	2510	794	> 10000	5.9	232	6.5			
COCCN1CCn2nc(-c3ccncc3)c(-c3ccc(OCc4ccc(C(C)C)cc4)cc3)c2C1=O [Compound 50]	158	50.1	> 10000	7.2	167	7.1			
CC(C)c1ccc(COc2ccc(-c3c(-c4ccncc4)nn4c3C(=O)NCC4)c(F)c2F)cc1 [Compound 16]	398	100	> 10000	7.1	214	7.4			
CC(C)c1ccc(COc2ccc(-c3c(-c4ccncc4)nn4c3C(=O)N(CCO)CC4)cc2)c(F)c1 [Compound 92]	200	50.1	> 10000	6.7	132	7.2			
CC(C)c1ccc(C2CCc3cc(-c4c(-c5ccncc5)nn5c4C(=O)NCC5)ccc3O2)cc1 (stereo not drawn) [Compound 199]	1260	200	> 10000	7.5	262	7.1			
CC(C)c1ccc(COc2cnc(-c3c(-c4ccncc4)nn4c3C(=O)NCC4)cn2)cc1 [Compound 76]	794	251	> 10000	7.0	225	6.8			
CC(C)c1ccc(COc2ncc(-c3c(-c4ccncc4)nn4c3C(=O)NCC4)cn2)cc1 [Compound 75]	63.1	12.6	> 10000	7.5	126	7.9			
CC(C)c1ccc(COc2ccc(-c3c(-c4ccncc4)nn4c3C(=O)N(CCO)CC4)cc2)cc1F [Compound 93]	398	79.4	> 10000	7.0	183	7.2			
CC(C)c1ccc(COc2ccc(-c3c(-c4ccncc4)nn4c3CN(CCO)CC4)cc2)cc1 [Compound 176]		158		7.1	150	6.9	79.4	> 10000	
CC(C)c1ccc(COc2ccc(-c3c(-c4ccncc4)nn4c3CN(CC(=O)N(C)C)CC4)cc2)cc1 [Compound 177]		200		6.6	95	6.9	398	> 10000	
COc1cc(-c2c(-c3ccncc3)nn3c2C(=O)NCC3)ncc1OCc1ccc(C(C)C)cc1 [Compound 72]	251	63.1	> 10000	6.0	231	7.2			
CC(C)OCC(O)CN1CCn2nc(-c3ccncc3)c(-c3ccc(OCc4ccc(C(C)C)cc4)cc3)c2C1=O (stereo not drawn) [Compound 45]	1260	158	> 10000	6.6	148	6.7			
CC(C)c1ccc(C2CNc3cc(-c4c(-c5ccncc5)nn5c4C(=O)NCC5)ccc3O2)cc1 (racemic) [Compound 226]		631		6.8	252	7.1	501	> 10000	
O=C1c2c(-c3ccc(OCc4ccc(OC(F)(F)F)cc4)cc3F)c(-c3ccncc3)nn2CCN1CCO [Compound 206]	100	39.8	> 10000	~7.4	140	7.5			
